Measured values taken from patent publication US6358885B1, “Substituted phenylheterocyclic herbicides” (Mississippi State University, priority 1992, dated 2002).

Assays:
barnyardgrass [1] = assay: Test C flood test plant response rating 0 to 100; assay type: in vivo, Echinochloa crus-galli; settings: for Plant response rating (0 to 100), Barnyardgrass: under POSTEMERGENCE head (flood test species); for Plant response rating, Barnyardgrass: flood test species listed under POSTEMERGENCE, 0 to 100 scale
Procedure, shortened: (§1)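 Compounds in non-phytotoxic solvent applied preemergence to sandy loam one day after planting, postemergence at the 1–4 leaf stage, or to ~2.5 cm floodwater over silt loam.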

rape = assay: Test C preemergence/postemergence greenhouse plant response rating 0 to 100; assay type: in vivo, Brassica napus; settings: POSTEMERGENCE; for Plant response rating, Rape: 0 to 100 scale
Procedure, shortened: as §1

downy brome = assay: as above; assay type: in vivo, Bromus tectorum; settings: POSTEMERGENCE; for Plant response rating Downy Brome: 0 to 100 scale
Procedure, shortened: as §1

chickweed = assay: as above; assay type: in vivo, Stellaria media; settings: POSTEMERGENCE; for Plant response rating, Chickweed: 0 to 100 scale
Procedure, shortened: as §1

giant foxtail [2] = assay: as above; assay type: in vivo, Setaria faberii; settings: POSTEMERGENCE; for Plant response rating, Giant foxtail: 0 to 100 scale
Procedure, shortened: as §1

purple nutsedge = assay: Test B preemergence/postemergence greenhouse plant response rating 0 to 10; assay type: in vivo, Cyperus rotundus; settings: 0 to 10 scale
Procedure, shortened: (§2)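 Planted seeds are treated preemergence with compound dissolved in a non-phytotoxic solvent, while postemergence applications go onto plants of two to eighteen cm. Plants stay in the greenhouse twelve to sixteen days and are then rated visually relative to controls.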

wild oat [3] = assay: as above; assay type: in vivo, Avena fatua; settings: 0 to 10 scale
Procedure, shortened: as §2

soybean = assay: Test C preemergence/postemergence greenhouse plant response rating 0 to 100; assay type: in vivo, Glycine max; settings: POSTEMERGENCE; for Plant response rating, Soybean: 0 to 100 scale
Procedure, shortened: as §1

umbrella sedge = assay: Test C flood test plant response rating 0 to 100; assay type: in vivo, Cyperus difformis; settings: for Plant response rating (0 to 100), Umbrella sedge: under POSTEMERGENCE head (flood test species); for Plant response rating Umbrella sedge: flood test species listed under POSTEMERGENCE, 0 to 100 scale
Procedure, shortened: as §1

wild oat [4] = assay: Test C preemergence/postemergence greenhouse plant response rating 0 to 100; assay type: in vivo, Avena fatua; settings: POSTEMERGENCE; for Plant response rating, Wild oat: 0 to 100 scale
Procedure, shortened: as §1

lambsquarters = assay: Test B preemergence/postemergence greenhouse plant response rating 0 to 10; assay type: in vivo, Chenopodium album; settings: 0 to 10 scale
Procedure, shortened: as §2

crabgrass = assay: as above; assay type: in vivo, Digitaria spp.; settings: 0 to 10 scale
Procedure, shortened: as §2

wild buckwheat = assay: as above; assay type: in vivo, Polygonum convolvulus; settings: 0 to 10 scale
Procedure, shortened: as §2

cotton = assay: Test C preemergence/postemergence greenhouse plant response rating 0 to 100; assay type: in vivo, Gossypium hirsutum; settings: POSTEMERGENCE; for Plant response rating, Cotton: 0 to 100 scale
Procedure, shortened: as §1

barnyardgrass [5] = assay: Test B preemergence/postemergence greenhouse plant response rating 0 to 10; assay type: in vivo, Echinochloa crus-galli; settings: 0 to 10 scale
Procedure, shortened: as §2

rice = assay: Test C flood test plant response rating 0 to 100; assay type: in vivo, Oryza sativa; settings: for Plant response rating (0 to 100), Rice Japonica: under POSTEMERGENCE head (flood test species); for Plant response rating Rice Japonica: flood test species listed under POSTEMERGENCE, 0 to 100 scale
Procedure, shortened: as §1

cocklebur = assay: Test B preemergence/postemergence greenhouse plant response rating 0 to 10; assay type: in vivo, Xanthium pensylvanicum; settings: 0 to 10 scale
Procedure, shortened: as §2

giant foxtail [6] = assay: as above; assay type: in vivo, Setaria faberii; settings: 0 to 10 scale
Procedure, shortened: as §2

## C=C(Cl)COc1cc(-c2nn3c(c2Cl)CCCC3)c(F)cc1Cl [Compound 40]
Barnyardgrass [1]; Rate 16 g/ha
  Plant response rating (0 to 100), Barnyardgrass: 100
Barnyardgrass [1]; Rate 31 g/ha
  Plant response rating (0 to 100), Barnyardgrass: 100
Barnyardgrass [1]; 62 g/ha
  Plant response rating, Barnyardgrass: 100
Barnyardgrass [1]; 125 g/ha
  Plant response rating, Barnyardgrass: 100
rape; 62 g/ha
  Plant response rating, Rape: 70
rape; 125 g/ha
  Plant response rating, Rape: 70
rape; Rate 16 g/ha
  Plant response rating (0 to 100), Rape: 50
rape; Rate 31 g/ha
  Plant response rating (0 to 100), Rape: 70
Downy brome; 62 g/ha
  Plant response rating Downy Brome: 50
Downy brome; 125 g/ha
  Plant response rating Downy Brome: 60
Downy brome; Rate 16 g/ha
  Plant response rating (0 to 100), Downy Brome: 30
Downy brome; Rate 31 g/ha
  Plant response rating (0 to 100), Downy Brome: 40
chickweed; 62 g/ha
  Plant response rating, Chickweed: 60
chickweed; 125 g/ha
  Plant response rating, Chickweed: 90
chickweed; Rate 16 g/ha
  Plant response rating (0 to 100), Chickweed: 30
chickweed; Rate 31 g/ha
  Plant response rating (0 to 100), Chickweed: 30
Giant foxtail [2]; 62 g/ha
  Plant response rating, Giant foxtail: 60
Giant foxtail [2]; 125 g/ha
  Plant response rating, Giant foxtail: 70
Giant foxtail [2]; Rate 16 g/ha
  Plant response rating (0 to 100), Giant foxtail: 30
Giant foxtail [2]; Rate 31 g/ha
  Plant response rating (0 to 100), Giant foxtail: 40
Purple nutsedge; POSTEMERGENCE, Rate 50 g/ha
  Plant response rating, Nutsedge: 2
Purple nutsedge; PREEMERGENCE, Rate 50 g/ha
  Plant response rating, Nutsedge: 0
Purple nutsedge; Rate 200 g/ha, POSTEMERGENCE
  Plant response rating, Nutsedge: 4
Purple nutsedge; Rate 200 g/ha, PREEMERGENCE
  Plant response rating, Nutsedge: 0
Wild oat [3]; POSTEMERGENCE, Rate 50 g/ha
  Plant response rating, Wild oat: 4
Wild oat [3]; PREEMERGENCE, Rate 50 g/ha
  Plant response rating, Wild oat: 0
Wild oat [3]; Rate 200 g/ha, POSTEMERGENCE
  Plant response rating, Wild oat: 5
soybean; 62 g/ha
  Plant response rating, Soybean: 50
soybean; 125 g/ha
  Plant response rating, Soybean: 60
soybean; Rate 16 g/ha
  Plant response rating (0 to 100), Soybean: 40
soybean; Rate 31 g/ha
  Plant response rating (0 to 100), Soybean: 40
Umbrella sedge; Rate 16 g/ha
  Plant response rating (0 to 100), Umbrella sedge: 0
Umbrella sedge; Rate 31 g/ha
  Plant response rating (0 to 100), Umbrella sedge: 0
Umbrella sedge; 62 g/ha
  Plant response rating Umbrella sedge: 10
Umbrella sedge; 125 g/ha
  Plant response rating Umbrella sedge: 70
Wild oat [4]; 62 g/ha
  Plant response rating, Wild oat: 30
Wild oat [4]; 125 g/ha
  Plant response rating, Wild oat: 40
Wild oat [4]; Rate 16 g/ha
  Plant response rating (0 to 100), Wild oat: 20
Wild oat [4]; Rate 31 g/ha
  Plant response rating (0 to 100), Wild oat: 20
lambsquarters; POSTEMERGENCE, Rate 50 g/ha
  Plant response rating, Lambsquarter: 9
lambsquarters; PREEMERGENCE, Rate 50 g/ha
  Plant response rating, Lambsquarter: 10
lambsquarters; Rate 200 g/ha, POSTEMERGENCE
  Plant response rating, Lambsquarter: 10
lambsquarters; Rate 200 g/ha, PREEMERGENCE
  Plant response rating, Lambsquarter: 10
crabgrass; POSTEMERGENCE, Rate 50 g/ha
  Plant response rating, Crabgrass: 4
crabgrass; POSTEMERGENCE, Rate 200 g/ha
  Plant response rating, Crabgrass: 5
crabgrass; PREEMERGENCE, Rate 50 g/ha
  Plant response rating, Crabgrass: 0
crabgrass; Rate 200 g/ha, PREEMERGENCE
  Plant response rating, Crabgrass: 8
Wild buckwheat; POSTEMERGENCE, Rate 50 g/ha
  Plant response rating, Wild buckwheat: 9
Wild buckwheat; Rate 200 g/ha, POSTEMERGENCE
  Plant response rating, Wild buckwheat: 10
Wild buckwheat; Rate 200 g/ha, PREEMERGENCE
  Plant response rating, Wild buckwheat: 9
cotton; 62 g/ha
  Plant response rating, Cotton: 100
cotton; 125 g/ha
  Plant response rating, Cotton: 100
cotton; Rate 16 g/ha
  Plant response rating (0 to 100), Cotton: 100
cotton; Rate 31 g/ha
  Plant response rating (0 to 100), Cotton: 100
Barnyardgrass [5]; POSTEMERGENCE, Rate 50 g/ha
  Plant response rating, Barnyardgrass: 4
Barnyardgrass [5]; POSTEMERGENCE, Rate 200 g/ha
  Plant response rating, Barnyardgrass: 4
Barnyardgrass [5]; PREEMERGENCE, Rate 50 g/ha
  Plant response rating, Barnyardgrass: 1
Barnyardgrass [5]; Rate 200 g/ha, PREEMERGENCE
  Plant response rating, Barnyardgrass: 3
rice; Rate 16 g/ha
  Plant response rating (0 to 100), Rice Japonica: 35
rice; Rate 31 g/ha
  Plant response rating (0 to 100), Rice Japonica: 35
rice; 62 g/ha
  Plant response rating Rice Japonica: 40
rice; 125 g/ha
  Plant response rating Rice Japonica: 40
cocklebur; POSTEMERGENCE, Rate 50 g/ha
  Plant response rating, Cocklebur: 5
cocklebur; POSTEMERGENCE, Rate 200 g/ha
  Plant response rating, Cocklebur: 10
cocklebur; PREEMERGENCE, Rate 50 g/ha
  Plant response rating, Cocklebur: 5
cocklebur; Rate 200 g/ha, PREEMERGENCE
  Plant response rating, Cocklebur: 8
Giant foxtail [6]; POSTEMERGENCE, Rate 50 g/ha
  Plant response rating, Giant foxtail: 5
Giant foxtail [6]; PREEMERGENCE, Rate 50 g/ha
  Plant response rating, Giant foxtail: 9
Giant foxtail [6]; Rate 200 g/ha, POSTEMERGENCE
  Plant response rating, Giant foxtail: 6
Giant foxtail [6]; Rate 200 g/ha, PREEMERGENCE
  Plant response rating, Giant foxtail: 9
